Measurements: patent US11453681B2, “Substituted eneoxindoles and uses thereof” (Gilead Sciences, Inc., priority 2019, dated 2022)
pIC50: −log10 of the molar value.

biological target: human HPK1 (MAP4K1) (Homo sapiens (Human), UniProt Q92918); assay: HPK1 IC50 Assay; format: biochemical; conditions: recombinant HPK1 kinase domain 0.15 nM, synthetic peptide substrate STK S1, 3 hours at 25° C., time-resolved fluorescence energy transfer; geometric mean of multiple experiments
Method: The enzymatic activity of human HPK1 (MAP4K1) was monitored in a biochemical assay in the presence or absence of compounds and using a synthetic peptide substrate. An increase in phosphorylation of the peptide by HPK1 was indicative of its kinase activity.
Recombinant HPK1 kinase domain produced via baculovirus infection of insect cells was obtained from Proteros (Proteros Biostructures #PR-0322) and was pre-activated in the presence of 2 mM ATP (Sigma-Aldrich, cat #GE27-2056-01) and 2 mM magnesium chloride for 16 hours at 4° C. The protein reaction mixture was then loaded to a desalting column (Thermo Fisher Scientific, Cat #89889) to remove excess ATP. HPK1 was eluted with buffer containing 20 mM Tris (2-Amino-2-(hydroxymethyl)propane-1,3-diol) pH 8.0, 150 mM NaCl, 2 mM dithiothreitol and 5% glycerol, and was frozen at −80° C. for later use. HPK1 dual phosphorylation was confirmed by mass spectrometry.
Ten nanoliters of test compounds dissolved in DMSO at various concentrations were dispensed into a 384-well ProxiPlate (PerkinElmer #6008289). Five microliters of a solution of recombinant HPK1 diluted in HPK1 kinase assay buffer (50 mM BES [N,N-Bis(2-hydroxyethyl)-2-aminoethanesulfonic acid], pH 7.0; 10 mM magnesium chloride; 0.01% Triton X-100; 1 mM dithiothreitol; 0.01% bovine serum albumin; 0.1 mM sodium orthovanadate) was added to the compound-containing plate and was incubated for 15 minutes at 25° C. Five microliters of a mixture of ATP (Sigma-Aldrich #A6559) and peptide substrate STK Si (Cisbio #61ST1BLC) diluted in HPK1 kinase assay buffer was then added to start the reaction. Final concentrations were 0.15 nM for HPK1, […], and 1 […]. The reaction mixture was incubated at 25° C. for 3 hours and was stopped with the addition of 10 μl of an EDTA (Ethylenediaminetetraacetic acid)-containing detection buffer (Cisbio #62SDBRDF) supplemented with Europium cryptate-labeled anti-phospho-serine/threonine antibodies (Cisbio #62ST1PEJ) and XL665-labeled streptavidin (Cisbio #610SAXLG). The mixture was incubated for 16 hours at room temperature and peptide phosphorylation was measured by time-resolved fluorescence energy transfer (665 nm/620 nm) on an Envision plate reader (PerkinElmer).
Data in Table 1 were normalized based on positive (staurosporine) and negative (DMSO) controls. Least squares curve fittings were performed using a four-parameter variable slope nonlinear regression model. IC50 is defined as the concentration of compound required to inhibit 50% of maximum phosphorylation. IC50 values from multiple experiments were averaged by geometric mean and the standard deviation was calculated.

Chain of human HPK1 (MAP4K1) (Q92918 17-274): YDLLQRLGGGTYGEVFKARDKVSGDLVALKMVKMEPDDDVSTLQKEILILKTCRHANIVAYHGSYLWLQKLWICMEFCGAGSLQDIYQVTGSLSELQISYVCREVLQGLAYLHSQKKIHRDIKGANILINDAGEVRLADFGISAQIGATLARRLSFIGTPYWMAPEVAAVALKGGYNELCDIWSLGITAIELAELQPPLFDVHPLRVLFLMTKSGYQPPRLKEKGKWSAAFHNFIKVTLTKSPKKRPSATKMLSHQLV

With `Cc1c(-c2ccc3c(c2)/C(=C/c2cnn[nH]2)C(=O)N3)cnc2c1NCCO2` [Compound C27, (Z)-3-((1H-1,2,3-triazol-5-yl)methylene)-5-(8-methyl-2,3-dihydro-1H-pyrido[2,3-b][1,4]oxazin-7-yl)indolin-2-one] as the molecule, how does the pIC50 read?
The pIC50 was 8.79.

`O=C1Nc2ccc(-c3cnc4c(c3)NCCO4)cc2/C1=C/c1ncc[nH]1` [Compound C71, (Z)-3-((1H-imidazol-2-yl)methylene)-5-(2,3-dihydro-1H-pyrido[2,3-b][1,4]oxazin-7-yl)indolin-2-one] was tested. Which pIC50 did it give?
Its pIC50 is 7.18.

`Cc1ncc(/C=C2\C(=O)Nc3c(F)cc(-c4cnc5c(c4C)NCCO5)cc32)[nH]1` [Compound C10, (Z)-7-fluoro-3-((2-methyl-1H-imidazol-5-yl)methylene)-5-(8-methyl-2,3-dihydro-1H-pyrido[2,3-b][1,4]oxazin-7-yl)indolin-2-one] was tested. Which pIC50 did it give?
Its pIC50 is 9.66.

With `Cc1c(-c2ccc3c(c2)/C(=C/c2c[nH]c4ccccc24)C(=O)N3)cnc2c1NCCO2` [Compound C70, (Z)-3-((1H-indol-3-yl)methylene)-5-(8-methyl-2,3-dihydro-1H-pyrido[2,3-b][1,4]oxazin-7-yl)indolin-2-one] as the molecule, how does the pIC50 read?
The pIC50 was 9.38.

With `Cc1c[nH]c(/C=C2\C(=O)Nc3c(C)cc(-c4cnc5c(c4C)NCCO5)cc32)c1` [Compound C24, (Z)-7-methyl-3-((4-methyl-1H-pyrrol-2-yl)methylene)-5-(8-methyl-2,3-dihydro-1H-pyrido[2,3-b][1,4]oxazin-7-yl)indolin-2-one] as the molecule, how does the pIC50 read?
The pIC50 was 8.53.

`Cc1c(-c2cc3c(cc2Cl)NC(=O)/C3=C\c2cc3ccccc3[nH]2)cnc2c1NCCO2` [Compound C50, (Z)-3-((1H-indol-2-yl)methylene)-6-chloro-5-(8-methyl-2,3-dihydro-1H-pyrido[2,3-b][1,4]oxazin-7-yl)indolin-2-one] was tested. Which pIC50 did it give?
Its pIC50 is 9.72.

How did the pIC50 turn out when `Cc1c(-c2ccc3c(c2)/C(=C/c2ccc[nH]2)C(=O)N3)cnc2c1NCCO2` [Compound C29, (Z)-3-((1H-pyrrol-2-yl)methylene)-5-(8-methyl-2,3-dihydro-1H-pyrido[2,3-b][1,4]oxazin-7-yl)indolin-2-one] was run?
The pIC50 was 10.30.

How did the pIC50 turn out when `Cc1cc2c(cc1-c1cnc3c(c1C)NCCO3)/C(=C/c1cc3cnccc3[nH]1)C(=O)N2` [Compound C40, (Z)-3-((1H-pyrrolo[3,2-c]pyridin-2-yl)methylene)-6-methyl-5-(8-methyl-2,3-dihydro-1H-pyrido[2,3-b][1,4]oxazin-7-yl)indolin-2-one] was run?
Its pIC50 is 10.15.

With `Cc1c[nH]c(/C=C2\C(=O)Nc3c(Cl)cc(-c4cnc5c(c4C)NCCO5)cc32)c1` [Compound C22, (Z)-7-chloro-3-((4-methyl-1H-pyrrol-2-yl)methylene)-5-(8-methyl-2,3-dihydro-1H-pyrido[2,3-b][1,4]oxazin-7-yl)indolin-2-one] as the molecule, how does the pIC50 read?
The pIC50 was 8.58.

`Cc1c(-c2ccc3c(c2)/C(=C/c2ncc[nH]2)C(=O)N3)cnc2c1NC(=O)C1(CC1)O2` [Compound C33, (Z)-7′-(3-((1H-imidazol-2-yl)methylene)-2-oxoindolin-5-yl)-8′-methylspiro[cyclopropane-1,3′-pyrido[2,3-b][1,4]oxazin]-2′(1′H)-one] was tested. Which pIC50 did it give?
Its pIC50 is 8.25.

`CCN(CC)CCNC(=O)c1c(C)[nH]c(/C=C2\C(=O)Nc3c(F)cc(-c4cnc5c(c4C)NCCO5)cc32)c1C` [Compound C9, (Z)—N-(2-(diethylamino)ethyl)-5-((7-fluoro-5-(8-methyl-2,3-dihydro-1H-pyrido[2,3-b][1,4]oxazin-7-yl)-2-oxoindolin-3-ylidene)methyl)-2,4-dimethyl-1H-pyrrole-3-carboxamide] was tested. Which pIC50 did it give?
The pIC50 was 10.05.

With `Cc1c(-c2cc3c(cc2F)NC(=O)/C3=C\c2cc3ncccc3[nH]2)cnc2c1NCCO2` [Compound C44, (Z)-3-((1H-pyrrolo[3,2-b]pyridin-2-yl)methylene)-6-fluoro-5-(8-methyl-2,3-dihydro-1H-pyrido[2,3-b][1,4]oxazin-7-yl)indolin-2-one] as the molecule, how does the pIC50 read?
The pIC50 was 10.30.

`Cc1c(-c2cc(F)c3c(c2C)/C(=C/c2cc4cnccc4[nH]2)C(=O)N3)cnc2c1NCCO2` [Compound C54, (Z)-3-((1H-pyrrolo[3,2-c]pyridin-2-yl)methylene)-7-fluoro-4-methyl-5-(8-methyl-2,3-dihydro-1H-pyrido[2,3-b][1,4]oxazin-7-yl)indolin-2-one] was tested. Which pIC50 did it give?
The pIC50 was 9.57.

With `Cc1c(-c2ccc3c(c2)/C(=C/c2cc4ccncc4[nH]2)C(=O)N3)cnc2c1NCCO2` [Compound C58, (Z)-3-((1H-pyrrolo[2,3-c]pyridin-2-yl)methylene)-5-(8-methyl-2,3-dihydro-1H-pyrido[2,3-b][1,4]oxazin-7-yl)indolin-2-one] as the molecule, how does the pIC50 read?
Its pIC50 is 9.96.

`Cc1c[nH]c(/C=C2\C(=O)Nc3c(F)cc(-c4cnc5c(c4C)NCCO5)c(C)c32)c1` [Compound C13, (Z)-7-fluoro-4-methyl-3-((4-methyl-H-pyrrol-2-yl)methylene)-5-(8-methyl-2,3-dihydro-1H-pyrido[2,3-b][1,4]oxazin-7-yl)indolin-2-one] was tested. Which pIC50 did it give?
The pIC50 was 9.29.

With `Cc1c(-c2cc(Cl)c3c(c2)/C(=C/c2ccc[nH]2)C(=O)N3)cnc2c1NCCO2` [Compound C23, (Z)-3-((1H-pyrrol-2-yl)methylene)-7-chloro-5-(8-methyl-2,3-dihydro-1H-pyrido[2,3-b][1,4]oxazin-7-yl)indolin-2-one] as the molecule, how does the pIC50 read?
The pIC50 was 8.70.

With `Cc1c(-c2cc3c(cc2F)NC(=O)/C3=C\c2cc3cnccc3[nH]2)cnc2c1NCCO2` [Compound C49, (Z)-3-((1H-pyrrolo[3,2-c]pyridin-2-yl)methylene)-6-fluoro-5-(8-methyl-2,3-dihydro-1H-pyrido[2,3-b][1,4]oxazin-7-yl)indolin-2-one] as the molecule, how does the pIC50 read?
The pIC50 was 9.80.

With `Cc1c(-c2cc(F)c3c(c2C)/C(=C/c2cc4ccccc4[nH]2)C(=O)N3)cnc2c1NCCO2` [Compound C56, (Z)-3-((1H-indol-2-yl)methylene)-7-fluoro-4-methyl-5-(8-methyl-2,3-dihydro-1H-pyrido[2,3-b][1,4]oxazin-7-yl)indolin-2-one] as the molecule, how does the pIC50 read?
Its pIC50 is 9.29.

With `Cc1cc2c(cc1-c1cnc3c(c1)NCCO3)/C(=C/c1cc3cnccc3[nH]1)C(=O)N2` [Compound C41, (Z)-3-((1H-pyrrolo[3,2-c]pyridin-2-yl)methylene)-5-(2,3-dihydro-1H-pyrido[2,3-b][1,4]oxazin-7-yl)-6-methylindolin-2-one] as the molecule, how does the pIC50 read?
Its pIC50 is 8.24.
